Legend:
[1] = tested on: DNA; test: Quantum yield of dye on DNA versus fluorescein; assay type: physicochemical; details: for QY (DNA): Table 2, Tris buffered saline pH 10, fluorescein assumed 0.92; for Normalized QY: QY divided by QY of thiazole orange; for QY: Table 7, on DNA, fluorescein reference
Source text: ^ Quantum yield (QY) of dye on DNA (standard solution in Tris buffere
saline adjusted to pH 10) in comparison with fluorescein, which is assume
to have a quantum yield of 0.92 under the test conditions.
(§1) Factors such as degree of fluorescence enhancement with nucleic acid binding, self quenching, molar extinction coefficient, membrane permeability, intracellular partitioning, nucleic acid binding affinity, and quantum yield contribute to the overall fluorescence of nucleic acid stains in cells. Enhanced cell fluorescence obtained with Dye I is related to unexpected properties other than quantum yield alone. Quantum yield is determined as described above (foot note to Table 2). Normalized quantum yield is determined to illustrate the fold-change in quantum yield of Dye I compared with thiazole orange, a related cell-permeant dye. The normalized fluorescence values represent the quantum yield of each dye divided by the quantum yield of thiazole orange. Fluorescence per cell is also scaled to thiazole orange values for both E. coli and S. aureus to allow direct comparison between relative (normalized) quantum yield and relative (normalized) fluorescence/cell.

[2] = tested on: nucleic acids; test: Excitation/emission maxima of dyes complexed with nucleic acids; assay type: physicochemical; set-up: key: wavelength in nm; details: Table 2; dye complexed with nucleic acids
Source text: Dye I is lightly colored and is virtually non-fluorescent when diluted in aqueous solution according to the method of the invention. Dye I is highly membrane-permeant and labels all cells, whether live or dead. When Dye I binds with intracellular nucleic acid polymers such as DNA and RNA, the resultant dye-nucleic acid complex becomes extremely fluorescent upon illumination. The quantum yield of the preferred Dye I/DNA complex is greater than 0.02, typically greater than 0.1, preferably greater than 0.2, and more preferably greater than 0.3. Typically, Dye I combines with intracellular nucleic acids to give a green or red fluorescence. When excited at a wavelength between about 300 nm and about 500 nm, the dyes complexed with nucleic acids have an emission maximum between about 500 and about 610 nm (see Table 2). Preferably, Dye I complexed with nucleic acids has an emission maximum of between about 500 nm and about 535 nm, resulting in a true green fluorescent signal in cells of the sample where Dye I is present alone.

[3] = tested on: Peripheral blood lymphocytes; test: Live/dead staining of peripheral blood lymphocytes, fluorescence microscopy; assay type: cell-based, goat; details: 1 μM dye 637, 1 μM calcein AM, 30 minutes each, either order
Protocol: Peripheral blood lymphocytes are isolated from whole goat blood using the standard ficoll density gradient protocol. The cells are incubated in saline buffer with coverslips coated with a cell adhesive. After attachment to the coverslip, the cells are incubated with either
a) 1 μM dye 637 for 30 minutes followed by washing, and subsequently incubating with 1 μM calcein AM for 30 minutes, or
b) as above but labeling first with calcein AM, and subsequently staining with dye 637.
After washing with saline, the stained cells are viewed through a long-pass fluorescein filter to view calcein fluorescence and a long-pass Texas Red® filter to view the emission of dye 637. A Nikon fluorescence microscope equipped with a 40× objective is used for inspection and photography.

[4] = tested on: prokaryotic microbes; details: Kaneshiro et al. 1993; cited from earlier work
[5] = tested on: nucleic acids; details: cited from earlier work
[6] = tested on: S. aureus; test: Fluorescence per cell, stained bacteria (microtiter plate reader); assay type: cell-based, Staphylococcus aureus; details: for Fluorescence/Cell (ex 485/em 530): S. aureus, optimal dye concentration, corrected for cell number; for Normalized Fluorescence/cell (ex 485 nm/em 530 nm), Staphylococcus aureus: scaled to thiazole orange
Source text: (§2) 1. Measured in a fluorescence microtiter plate reader with extraction and
(§3) emission filters at 485+/-10 and 530+/-12, respectively. Fluorescence dat
(§4) are corrected for cell number; but are not corrected for cell volume or
(§5) 2. Optimal dye concentrations determined as in Example 3.
(§6) 3. Suspension concentrations as used for Example 3.
as §1
(§7) A culture of E. coli is washed by centrifugation and resuspended in water to its original volume. Using Corning 96-well microtiter plates with flat bottoms, 150 μL volumes of suspension are loaded per well. A single well of sterile water is the well background standard. Using a Dynatech MR600 microplate reader equipped with a 410 nm filter, absorbance is determined for the initial volumes of suspension. The suspension is diluted seven times by serial ten-fold dilutions in water, 150 μL of suspension per well, and the absorbance measured for each dilution. Following the absorbance measurements, each dilution loaded into wells is further diluted 1:10 and plated in duplicate on nutrient growth agar. The colonies are counted and expressed as colony forming units per milliliter (cfu/mL). Using the turbidity of the dilution in the microtiter plate, the suspension is diluted to a density of about 1×10^9 cfu/mL.
(§8) The bacteria suspension, adjusted to a known density as described above, is diluted seven times by serial ten-fold dilutions in water; 150 μL of suspension per well. Three-fold serial dilutions of dye are used (30-0.04 μM); 50 μL of dye at 4× final concentration. Using Corning 96-well microtiter flat-bottom plates, a matrix is set up whereby the cell concentration decreases across the plate and the dye concentration decreases down the plate, final volume per well is 200 μL. The top row and first column are reserved for the control, sterile water. The plate is incubated at 37° C. for 30 minutes, then read in a Millipore Cytofluor™ 2350 96-well fluorescence microplate reader at a fixed excitation of 485+/-10 nm and each of three emission wavelengths, 530+/-12, 620+/-20, or 645+/-20 nm. The results determine the best dye range (30-1 μM) and the best cell concentrations (concentrated through first three ten-fold dilutions) for optimal dye loading. […] Using the four dye dilutions and the four bacterial dilutions, many bacteria and dyes can be assayed quickly. The data collected allow the determination of optimal dye and cell concentration required for maximal fluorescence intensity per cell.

[7] = tested on: S. sonnei; test: as above; assay type: cell-based, Shigella sonnei; details: optimal dye concentration, corrected for cell number
Protocol: as §2, §3, §4, §5, §6, §7, §8

[8] = tested on: M. luteus; test: as above; assay type: cell-based, Micrococcus luteus; details: optimal dye concentration, corrected for cell number
Protocol: as §2, §3, §4, §5, §6, §7, §8

[9] = tested on: S. oranienburg; test: as above; assay type: cell-based, Salmonella oranienburg; details: optimal dye concentration, corrected for cell number
Protocol: as §2, §3, §4, §5, §6, §7, §8

[10] = tested on: E. coli; test: as above; assay type: cell-based, Escherichia coli; details: for Fluorescence/Cell (ex 485/em 530): E. coli, optimal dye concentration, corrected for cell number; for Normalized Fluorescence/cell (ex 485 nm/em 530 nm), Escherichia coli: scaled to thiazole orange
Source text: as §2, §3, §4, §5, §6, §1, §7, §8

[11] = tested on: NIH/3T3 mouse fibroblast cell line; test: Live/dead staining of fibroblasts, fluorescence microscopy; assay type: cell-based
Protocol: NIH/3T3 mouse fibroblast cell line is obtained from American Type Culture Collection Co., Rockville, Md. The cells are maintained in a humidified atmosphere of 5% CO2 in Dulbecco's modified Eagle's medium (DMEM) supplemented with 10% calf serum, 50 μg/mL gentamicin, 300 μg/mL L-glutamine and 10 mM HEPES pH 7.4. Cells are subcultured every 3 days by trypsinization using 0.05% trypsin and 0.02% EDTA in a Ca- and Mg-free saline solution (Gibco BRL, Gaithersburg, Md.).
A 5 μM staining solution of the dye 61 is prepared by dilution of 25 μL of 2 mM stock solution into 10 mL DMEM. A 2 μM staining solution of ethidium homodimer-1 is prepared by dilution of 2 μL of 10 mM stock solution into 10 mL phosphate buffered saline (PBS).
The 3T3 cells are stained with the 5 μM solution of dye 61, and then incubated in the dark at room temperature for 30 minutes. The cells are then […] with the 2 μM ethidium homodimer-1 solution.
The 3T3 cells are then observed a long-pass fluorescein filter to view dye 61 fluorescence and a long-pass Texas Red® filter to view the emission of ethidium homodimer. A Nikon fluorescence microscope equipped with a 40× objective is used for inspection and photography.

[12] = tested on: B. cereus; test: Fluorescence per cell, stained bacteria (microtiter plate reader); assay type: cell-based, Bacillus cereus; details: optimal dye concentration, corrected for cell number
Protocol: as §2, §3, §4, §5, §6, §7, §8

[13] = tested on: P. aeruginosa; test: as above; assay type: cell-based, Pseudomonas aeruginosa; details: optimal dye concentration, corrected for cell number
Protocol: as §2, §3, §4, §5, §6, §7, §8

[14] = tested on: K. pneumonia; test: as above; assay type: cell-based, Klebsiella pneumonia; details: optimal dye concentration, corrected for cell number
Protocol: as §2, §3, §4, §5, §6, §7, §8

[15] = tested on: S. pyogenes; test: as above; assay type: cell-based, Streptococcus pyogenes; details: optimal dye concentration, corrected for cell number
Protocol: as §2, §3, §4, §5, §6, §7, §8

[16] = tested on: calf thymus DNA; details: Table 5; bound to excess calf thymus DNA (50 bp/dye); cited from earlier work
[17] = tested on: intact cells; details: cited from earlier work

| Compound | QY (DNA) [1] | EM max [2] | EX max [2] | Fluorescence/Cell (ex 485/em 530) [6] | Normalized Fluorescence/cell (ex 485 nm/em 530 nm), Staphylococcus aureus [6] | Normalized QY [1] | QY [1] | Fluorescence/Cell (ex 485/em 530) [7] | Fluorescence/Cell (ex 485/em 530) [8] | Fluorescence/Cell (ex 485/em 530) [9] | Fluorescence/Cell (ex 485/em 530) [10] | Normalized Fluorescence/cell (ex 485 nm/em 530 nm), Escherichia coli [10] | Fluorescence/Cell (ex 485/em 530) [12] | Fluorescence/Cell (ex 485/em 530) [13] | Fluorescence/Cell (ex 485/em 530) [14] | Fluorescence/Cell (ex 485/em 530) [15] | other results |
| --- | --- | --- | --- | --- | --- | --- | --- | --- | --- | --- | --- | --- | --- | --- | --- | --- | --- |
| CCCCC1=CC(=CC=Cc2oc3ccccc3[n+]2C)c2ccccc2N1c1ccccc1 [compound 637] | 0.28 | 622 | 601 |  |  |  |  |  |  |  |  |  |  |  |  |  | staining of dead cells [3]: stained only with dye 637 and do not exhibit green fluorescence |
| Nc1ccc2c(c1)c(-c1ccccc1)[n+](CCCNCCNCCC[n+]1c(-c3ccccc3)c3cc(N)ccc3c3ccc(N)cc31)c1cc(N)ccc21 [ethidium homodimer] |  |  |  |  |  |  |  |  |  |  |  |  |  |  |  |  | usefulness with prokaryotic microbes versus eukaryotic microbes [4]: less useful with cells from prokaryotic microbes |
| N=C(N)c1ccc(-c2cc3ccc(C(=N)N)cc3[nH]2)cc1 [DAPI] |  |  |  |  |  |  |  |  |  |  |  |  |  |  |  |  | excitability of nucleic acid complex ([5]; background): only excitable with UV light; spectral overlap of DNA-bound dye with cellular autofluorescence ([5]; background): overlap significantly with cellular autofluorescence |
| CCCCC1=CC(=Cc2sc3ccccc3[n+]2C)c2ccccc2N1c1ccccc1 [compound 61] | 0.46 | 527 | 500 | 15 | 4.7 | 2.5 | 0.46 | 6 | 49 | 10 | 10 | 5 | 196 | 5 | 10 | 0.01 | staining of live cells ([11]; 5 μM, 30 minutes, room temperature): live cells are stained fluorescent green |
| CCOc1ccc(-c2nc3ccc(-c4nc5ccc(N6CCN(C)CC6)cc5[nH]4)cc3[nH]2)cc1 [Hoechst 33342] |  |  |  |  |  |  |  |  |  |  |  |  |  |  |  |  | excitability of nucleic acid complex ([5]; background): only excitable with UV light; spectral overlap of DNA-bound dye with cellular autofluorescence ([5]; background): overlap significantly with cellular autofluorescence |
| Nc1ccc2c(c1)c(-c1ccccc1)[n+](CCCNCCNCCC[n+]1c(-c3ccccc3)c3cc(N)ccc3c3ccc(N)cc31)c1cc(N)ccc21 [Ethidium homodimer-1] |  |  |  |  |  |  |  |  |  |  |  |  |  |  |  |  | staining of dead cells ([11]; 2 μM): dead cells are stained fluorescent red; EM max [16]: 617 nm; EX max [16]: 528 nm |
| CN1C(=Cc2cc[n+](C)c3ccccc23)Sc2ccccc21 [Thiazole Orange, reference compound] | 0.18 | 530 | 510 | 3.2 | 1.0 | 1.0 | 0.18 | 1 | 21 | 1 | 2 | 1 | 51 | 2 | 3 | < 0.01 | EM max [16]: 525 nm; EX max [16]: 509 nm |
| Calcein AM |  |  |  |  |  |  |  |  |  |  |  |  |  |  |  |  | T1/2 (time for half of dye to leak from intact cells) ([17]; 37° C., up to): up to 3 hour; Loading ([17]; in words): Easily loaded; Retention ([17]; in words): very good; pH sensitivity ([17]; in words): not very; usefulness with prokaryotic microbes versus eukaryotic microbes [4]: less useful with cells from prokaryotic microbes |
| CN(C)c1ccc2cc3ccc(N(C)C)cc3nc2c1 [acridine orange] |  |  |  |  |  |  |  |  |  |  |  |  |  |  |  |  | fluorescence enhancement upon binding to nucleic acids ([5]; background): about two-fold; background signal [5]: high background signal |
| CC1=CC(=Cc2sc3ccccc3[n+]2C)c2ccccc2N1c1ccccc1 [compound 613] | 0.33 | 523 | 506 | 10 | 3.1 | 1.8 | 0.33 | 6 | 75 | 10 | 12 | 6 | 242 | 6 | 10 | 0.02 |  |
